Assay results taken from patent US9845322B2 (Hoffmann-La Roche Inc., priority 2016, dated 2017).

The compounds below were run on HBsAg secretion in HepG2.2.15 cells (assay: HBsAg assay (chemiluminescence immunoassay of secreted HBsAg in culture supernatant)). Settings: HepG2.2.15 cells; concentration at which HBsAg secretion was reduced by 50% compared to the no drug control; read-out: IC50 (HBsAg assay).
Format: cell-based, HBV
How it was run: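 HepG2.2.15 cells (1.5×10^4/well, duplicate) treated with three-fold compound dilutions, 1% DMSO final, DMSO as no-drug control. Secreted HBsAg in supernatant quantified semi-quantitatively by chemiluminescence immunoassay; IC50 is concentration reducing HBsAg 50% versus no-drug control.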
`COc1cc(N2CCc3nc(-c4ncccn4)ncc3C2C)cc(F)c1F` (single isomer, unassigned; (-)) [Example 17, (−)-6-(3,4-difluoro-5-methoxy-phenyl)-5-methyl-2-pyrimidin-2-yl-7,8-dihydro-5H-pyrido[4,3-d]pyrimidine] gave an IC50 of 8 nM.
`COc1cc(F)cc(N2CCc3nc(-c4ncccn4)ncc3C2C)c1` (single isomer, unassigned; (+)) [Example 74, (+)-6-(3-fluoro-5-methoxy-phenyl)-5-methyl-2-pyrimidin-2-yl-7,8-dihydro-5H-pyrido[4,3-d]pyrimidine] was tested, and the IC50 was 2250 nM.
`CC1c2cnc(-c3ncccn3)nc2CCN1c1cc(F)cc(N2CCNC(=O)C2)n1` (single isomer, unassigned; (-)) [Example 225, (−)-4-[4-fluoro-6-(5-methyl-2-pyrimidin-2-yl-7,8-dihydro-5H-pyrido[4,3-d]pyrimidin-6-yl)-2-pyridyl]piperazin-2-one] gave an IC50 of 13 nM.

Same assay, conditions: Hepatitis B virus, HepG2.2.15, HepG2.2.15 cells; concentration at which HBsAg secretion was reduced by 50% compared to the no drug control; read-out: IC50 (HBsAg assay)
In the case of `CNc1cc(F)nc(N2CCc3nc(-c4ncccn4)ncc3C2C)c1` (single isomer, unassigned; (-)) [Example 203, (−)-2-fluoro-N-methyl-6-[5-methyl-2-pyrimidin-2-yl-7,8-dihydro-5H-pyrido[4,3-d]pyrimidin-6-yl]pyridin-4-amine], the IC50 is reported as 6 nM.
`CC1c2cnc(-c3ncccn3)nc2CCN1c1cc(F)cc(N2CCNC(=O)C2)n1` (stereo not shown) [Example 214, 4-[4-fluoro-6-(5-methyl-2-pyrimidin-2-yl-7,8-dihydro-5H-pyrido[4,3-d]pyrimidin-6-yl)-2-pyridyl]piperazin-2-one] gave an IC50 of 22 nM.
`CC1c2cnc(-c3ncccn3)nc2CCN1c1cc(OCCCCCC(N)=O)cc(F)n1` (single isomer, unassigned; (-)) [Example 165, (−)-6-[[2-fluoro-6-[5-methyl-2-pyrimidin-2-yl-7,8-dihydro-5H-pyrido[4,3-d]pyrimidin-6-yl]-4-pyridyl]oxy]hexanamide] showed an IC50 of 13 nM.
Compound `CC1c2cnc(-c3ncccn3)nc2CCN1c1cc(OCC2CSC2)cc(F)n1` (stereo not shown) [Example 194, 6-[6-fluoro-4-(thietan-3-ylmethoxy)-2-pyridyl]-5-methyl-2-pyrimidin-2-yl-7,8-dihydro-5H-pyrido[4,3-d]pyrimidine] has an IC50 of 43 nM.
`CC(=O)N1CC(CCOc2cc(N3CCc4nc(-c5ncccn5)ncc4C3C)cc(F)c2F)C1` (stereo not shown) [Example 117, 1-[3-[2-[2,3-difluoro-5-(5-methyl-2-pyrimidin-2-yl-7,8-dihydro-5H-pyrido[4,3-d]pyrimidin-6-yl)phenoxy]ethyl]azetidin-1-yl]ethanone] showed an IC50 of 72 nM.
In the case of `CC1c2cnc(-c3ccccn3)nc2CCN1c1cc(F)c(F)c(OCCCCCO)c1` (stereo not shown) [Example 25, 5-[2,3-difluoro-5-[5-methyl-2-(2-pyridyl)-7,8-dihydro-5H-pyrido[4,3-d]pyrimidin-6-yl]phenoxy]pentan-1-ol], the IC50 is reported as 33 nM.
`CC1c2cnc(-c3ncccn3)nc2CCN1c1cc(OCCCCCC(=O)O)cc(F)n1` (single isomer, unassigned; (-)) [Example 164, (−)-6-[[2-fluoro-6-[5-methyl-2-pyrimidin-2-yl-7,8-dihydro-5H-pyrido[4,3-d]pyrimidin-6-yl]-4-pyridyl]oxy]hexanoic acid] showed an IC50 of 22 nM.
`CC1c2cnc(-c3ncccn3)nc2CCN1c1cc(F)c(F)c(OCC2CS(=O)(=O)C2)c1` (stereo not shown) [Example 120, 3-[[2,3-difluoro-5-(5-methyl-2-pyrimidin-2-yl-7,8-dihydro-5H-pyrido[4,3-d]pyrimidin-6-yl)phenoxy]methyl]thietane 1,1-dioxide] showed an IC50 of 96 nM.
For `CC1c2cnc(-c3ncccn3)nc2CCN1c1cc(F)c(F)c(OCCC2CCCO2)c1` (stereo not shown) [Example 105, 6-[3,4-difluoro-5-(2-tetrahydrofuran-2-ylethoxy)phenyl]-5-methyl-2-pyrimidin-2-yl-7,8-dihydro-5H-pyrido[4,3-d]pyrimidine], the IC50 was 23 nM.
Work on `CC1c2cnc(-c3ncccn3)nc2CCN1c1cc(F)cc(C(=O)O)c1` (stereo not shown) [Example 176, 3-fluoro-5-(5-methyl-2-pyrimidin-2-yl-7,8-dihydro-5H-pyrido[4,3-d]pyrimidin-6-yl)benzoic acid] yielded an IC50 of 27800 nM.
Work on `CC1c2cnc(-c3ncccn3)nc2CCN1c1cc(F)c(F)c(OCC2(CO)CC2)c1` (stereo not shown) [Example 77, [1-[[2,3-difluoro-5-(5-methyl-2-pyrimidin-2-yl-7,8-dihydro-5H-pyrido[4,3-d]pyrimidin-6-yl)phenoxy]methyl]cyclopropyl]methanol] yielded an IC50 of 105 nM.
For `CC1c2cnc(-c3ncccn3)nc2CCN1c1cc(F)c(F)c(OCCCNC(=O)CCCCl)c1` (stereo not shown) [Example 95, 4-chloro-N-[3-[2,3-difluoro-5-(5-methyl-2-pyrimidin-2-yl-7,8-dihydro-5H-pyrido[4,3-d]pyrimidin-6-yl)phenoxy]propyl]butanamide], the IC50 was 724 nM.
In the case of `CC1c2cnc(-c3ncccn3)nc2CCN1c1cc(F)c(F)c(OCC2CCOC2)c1` (stereo not shown) [Example 75, 6-[3,4-difluoro-5-(tetrahydrofuran-3-ylmethoxy)phenyl]-5-methyl-2-pyrimidin-2-yl-7,8-dihydro-5H-pyrido[4,3-d]pyrimidine], the IC50 is reported as 21 nM.
`COc1cc(N2CCc3nc(-c4ncccn4)ncc3C2C)cc(Cl)n1` (stereo not shown) [Example 141, 6-(2-chloro-6-methoxy-4-pyridyl)-5-methyl-2-pyrimidin-2-yl-7,8-dihydro-5H-pyrido[4,3-d]pyrimidine] gave an IC50 of 113 nM.
`CC1c2cnc(-c3ncccn3)nc2CCN1c1cc(F)cc(OCC(F)F)c1` (stereo not shown) [Example 143, 6-[3-(2,2-difluoroethoxy)-5-fluoro-phenyl]-5-methyl-2-pyrimidin-2-yl-7,8-dihydro-5H-pyrido[4,3-d]pyrimidine] showed an IC50 of 22 nM.
Compound `CC1c2cnc(-c3ncccn3)nc2CCN1c1cc(OCCCC(=O)O)cc(F)n1` (single isomer, unassigned; (-)) [Example 184, (−)-4-[[2-fluoro-6-[5-methyl-2-pyrimidin-2-yl-7,8-dihydro-5H-pyrido[4,3-d]pyrimidin-6-yl]-4-pyridyl]oxy]butanoic acid] has an IC50 of 182 nM.
Compound `CC1c2cnc(-c3ncccn3)nc2CCN1c1cc(F)c(F)c(OCCC2CCOC2)c1` (stereo not shown) [Example 114, 6-[3,4-difluoro-5-(2-tetrahydrofuran-3-ylethoxy)phenyl]-5-methyl-2-pyrimidin-2-yl-7,8-dihydro-5H-pyrido[4,3-d]pyrimidine] has an IC50 of 18 nM.
`CCOC(=O)CC1c2cnc(-c3ccccn3)nc2CCN1c1cc(F)c(F)c(OC)c1` (stereo not shown) [Example 36, ethyl 2-[6-(3,4-difluoro-5-methoxy-phenyl)-2-(2-pyridyl)-7,8-dihydro-5H-pyrido[4,3-d]pyrimidin-5-yl]acetate] gave an IC50 of 39800 nM.
Work on `CC1c2cnc(-c3ccccn3)nc2CCN1c1cc(F)c(F)c(OCC(N)=O)c1` (stereo not shown) [Example 29, 2-[2,3-difluoro-5-[5-methyl-2-(2-pyridyl)-7,8-dihydro-5H-pyrido[4,3-d]pyrimidin-6-yl]phenoxy]acetamide] yielded an IC50 of 50 nM.
With `CC1c2cnc(-c3ccccn3)nc2CCN1c1cc(OCC(F)F)cc(F)n1` (stereo not shown) [Example 192, 6-[4-(2,2-difluoroethoxy)-6-fluoro-2-pyridyl]-5-methyl-2-(2-pyridyl)-7,8-dihydro-5H-pyrido[4,3-d]pyrimidine] the IC50 was 30 nM.
Work on `CC1c2cnc(-c3ncccn3)nc2CCN1c1cc(OCCCC(N)=O)cc(F)n1` (single isomer, unassigned; (-)) [Example 185, (−)-4-[[2-fluoro-6-[5-methyl-2-pyrimidin-2-yl-7,8-dihydro-5H-pyrido[4,3-d]pyrimidin-6-yl]-4-pyridyl]oxy]butanamide] yielded an IC50 of 14 nM.
Work on `CC1c2cnc(-c3ncccn3)nc2CCN1c1cc(OCCCCCCC(N)=O)cc(F)n1` (single isomer, unassigned; (-)) [Example 156, (−)-7-[[2-fluoro-6-[5-methyl-2-pyrimidin-2-yl-7,8-dihydro-5H-pyrido[4,3-d]pyrimidin-6-yl]-4-pyridyl]oxy]heptanamide] yielded an IC50 of 6 nM.
`CC1c2cnc(-c3ncccn3)nc2CCN1c1cc(OCCCOCC(N)=O)cc(F)n1` (stereo not shown) [Example 163, 2-[3-[[2-fluoro-6-(5-methyl-2-pyrimidin-2-yl-7,8-dihydro-5H-pyrido[4,3-d]pyrimidin-6-yl)-4-pyridyl]oxy]propoxy]acetamide] showed an IC50 of 35 nM.
In the case of `COc1cc(Cl)cc(N2CCc3nc(-c4ncccn4)ncc3C2C)n1` (stereo not shown) [Example 140, 6-(4-chloro-6-methoxy-2-pyridyl)-5-methyl-2-pyrimidin-2-yl-7,8-dihydro-5H-pyrido[4,3-d]pyrimidine], the IC50 is reported as 24 nM.

Each compound was assayed on HBV DNA production in HepG2.2.15 cells (assay: HBV DNA assay (real-time qPCR/TaqMan of extracellular HBV DNA in cell supernatant)). Settings: Hepatitis B virus, 144 h, extracellular HBV DNA copy number, six days after initial administration, read-out: IC50 (Anti HBV DNA production activity).
Format: cell-based
Procedure: HepG2.2.15 cells (Acs et al. Proc Natl Acad Sci USA, 84, (1987), 4641-4), a constitutively HBV-expressing cell line were cultured in DMEM+Glutamax-I medium (Invitrogen, Carlsbad, Calif., USA), supplemented with 10% fetal bovine serum (Invitrogen) and G418 (Invitrogen) at a final concentration of 200 mg/L and maintained in 5% CO2 at 37° C.
The assay employs real-time qPCR (TaqMan) to directly measure extracellular HBV DNA copy number in the cell supernatant. HepG2.2.15 cells were plated in 96-well microtiter plates before treatment with complete medium (DMEM, Glutamax, 10% FBS, 1% Penicillin/Streptomycin, 250 μg/mL Genetycin, final DMSO concentration is 1%). Only the interior wells were utilized to reduce “edge effects” observed during cell culture, the exterior wells were filled with complete medium to help minimize sample evaporation. The HepG2.2.15 cells were treated 1 h later with various concentrations of a test compound in duplicate (top concentration used at 5 μM, 2 μM or 0.5 μM according to the HBsAg IC50 observed, with ⅓ successive dilutions (total of 10 dilutions). Six days following the initial administration of the test compound, the cell culture supernatant was collected; DNA extraction was performed by automated system (Magnapure) and then used in a real-time qPCR/TaqMan assay to determine HBV DNA copy numbers. Antiviral activity was calculated from the reduction in HBV DNA levels (IC50). The compounds of the present invention were tested for their capacity to inhibit HBV DNA as described herein.
In the case of `CNc1cc(F)nc(N2CCc3nc(-c4ncccn4)ncc3C2C)c1` (single isomer, unassigned; (-)) [Example 203, (−)-2-fluoro-N-methyl-6-[5-methyl-2-pyrimidin-2-yl-7,8-dihydro-5H-pyrido[4,3-d]pyrimidin-6-yl]pyridin-4-amine], the IC50 is reported as 0.16 nM.
`CC1c2cnc(-c3ncccn3)nc2CCN1c1cc(F)cc(N2CCNC(=O)C2)n1` (stereo not shown) [Example 214, 4-[4-fluoro-6-(5-methyl-2-pyrimidin-2-yl-7,8-dihydro-5H-pyrido[4,3-d]pyrimidin-6-yl)-2-pyridyl]piperazin-2-one] showed an IC50 of 7.2 nM.
`CC1c2cnc(-c3ncccn3)nc2CCN1c1cc(OCCCCCC(N)=O)cc(F)n1` (single isomer, unassigned; (-)) [Example 165, (−)-6-[[2-fluoro-6-[5-methyl-2-pyrimidin-2-yl-7,8-dihydro-5H-pyrido[4,3-d]pyrimidin-6-yl]-4-pyridyl]oxy]hexanamide] was tested, and the IC50 was < 1 nM.
`COc1cc(N2CCc3nc(-c4ncccn4)ncc3C2C)cc(F)c1F` (single isomer, unassigned; (-)) [Example 17, (−)-6-(3,4-difluoro-5-methoxy-phenyl)-5-methyl-2-pyrimidin-2-yl-7,8-dihydro-5H-pyrido[4,3-d]pyrimidine] gave an IC50 of 2 nM.
